Assays:
[1] = background statement; cited from earlier work
[2] = Refractive index measurement (Abbe's refractometer, acetone solutions, analytical curve extrapolated); assay type: physicochemical; conditions: light of 589 nm, 25±1° C., extrapolated to volume fraction 1
Procedure: A refractive index measuring method will be described below.
Average refractive indices of the respective compounds to light of 589 nm at room temperature 25±1° C. were measured by an Abbe's refractometer (ER-1, produced by Erma, Inc.) and were plotted against volume fraction of each compound, to form analytical curves (the densities of the compounds were all 1.00 g/cm^3). The analytical curves were extrapolated, and the refractive index when the volume fraction of each compound is 1 was made to be a refractive index of each compound.

[3] = Transparency evaluation of resin compatible film with polyvinyl acetate (visual inspection); assay type: physicochemical; parameters: key: Good: Transparency is good.; Poor: Coloration is present; conditions: for Transparency: 3 μm film, 10 mg compound + 10 mg polyvinyl acetate, visual inspection; for evaluation of transparency: resin compatible film with PVAc
Text: Several drops of each of these resin compositions were dropped onto a 2 cm square glass substrate, a film was formed by a spin coater, and acetone as a solvent was evaporated off, to form a resin compatible film (3 μm thick) of each compound. These films were confirmed to be transparent by visual inspection and were subjected to evaluation of transparency.
The criterion of transparency evaluation is as follows.
Good . . . Transparency is good.
Poor . . . Coloration is present.

[4] = Solubility measurement in acetone; conditions: ultrasonic stirring, visual
Procedure: When there was an undissolved portion of the compound, a small amount of acetone was added thereto, and then stirring was further conducted for 30 seconds. The above-mentioned work was repeated, and upon dissolution of the whole of the compound, the solubility was calculated from the total amount of the solvent used.

[5] = Limit value (saturation amount) of dissolution of monomer in solvent of hologram recording photosensitive composition; assay type: physicochemical; conditions: hologram recording photosensitive composition with 8 g of acetone as solvent
Procedure: (§1) In Comparative Example 5, Hologram Recording Photosensitive Composition 50 was prepared by the same method as in Example 7 by using the same materials in the same amounts as in Example 7, except that 0.88 g of Compound 40-1 (the compound of Comparative Example 1) was used as a monofunctional photopolymerizable monomer. […] Note that the amount (0.88 g) in which Compound 40-1 was used is a limit value (saturation amount) of dissolution of the compound in a solvent.
as §1, with “6,” for “5,”, “60” for “50”, “1” for “0.88”, “40-2” for “40-1”, “2)” for “1)”, “(1” for “(0.88”
as §1, with “7,” for “5,”, “70” for “50”, “0.1” for “0.88”, “40-3” for “40-1”, “3)” for “1)”, “(0.1” for “(0.88”

SMILES | Refractive index (589 nm) [2] | Transparency [3] | Solubility/wt % [4] | evaluation of transparency [3] | limit value (saturation amount) of dissolution of the compound in a solvent [5] | refractive index [1]
c1ccc2c(c1)ccc1c2sc2ccc3ccccc3c21 [dinaphthothiophene] |  |  |  |  |  | 1.8
c1ccc2c(c1)ccc1sc3ccc4ccccc4c3c12 [Comparative Example 4, reference compound] | 1.81 | Good |  |  |  | 
C=Cc1cc2ccccc2c2c1sc1ccc3ccccc3c12 [Comparative Example 3, reference compound] | 1.8 | Poor | <1.5 wt % | Poor | 0.1 g | 
C=C(C)C(=O)Oc1cccc(CCc2cc3ccccc3c3c2sc2ccc4ccccc4c23)c1 [Example 2] | 1.8 | Good | >20 wt % |  |  | 
C=C(C)C(=O)OC(C)c1cc2ccccc2c2c1sc1ccc3ccccc3c12 (centres unmarked) [Comparative Example 2, reference compound] | 1.71 | Poor | <11 wt % | Poor | 1 g | 
C=C(C)C(=O)Oc1ccccc1CCc1cc2ccccc2c2c1sc1ccc3ccccc3c12 [Example 1] | 1.8 | Good | >20 wt % |  |  | 
C=C(C)C(=O)OCc1cc2ccccc2c2c1sc1ccc3ccccc3c12 [Comparative Example 1, reference compound] | 1.73 | Good | <10 wt % |  | 0.88 g | 

Further lines, with some results ahead:

Refractive index (589 nm) [2] | Transparency [3] | Solubility/wt % [4] | evaluation of transparency [3] | limit value (saturation amount) of dissolution of the compound in a solvent [5] | SMILES | refractive index [1]
1.8 | Good | >20 wt % |  |  | C=C(C)C(=O)Oc1ccc(CCc2cc3ccccc3c3c2sc2ccc4ccccc4c23)cc1 [Example 3] | 
1.81 | Good | >20 wt % |  |  | C=C(C)C(=O)Oc1ccc2ccccc2c1CCc1cc2ccccc2c2c1sc1ccc3ccccc3c12 [Example 6] | 
1.7 | Good | >20 wt % |  |  | C=C(CCCCCCCCCC)C(=O)Oc1ccccc1CCc1cc2ccccc2c2c1sc1ccc3ccccc3c12 [Example 4] | 
1.73 | Good | >20 wt % |  |  | C=C(C)C(=O)Oc1cccc(OC(=O)C(=C)C)c1CCc1cc2ccccc2c2c1sc1ccc3ccccc3c12 [Example 13] | 
1.7 | Good | >20 wt % |  |  | C=C(C)C(=O)Oc1ccccc1CCc1cc2ccccc2c2c1sc1ccc3ccccc3c12 [Example 5] | 
1.72 | Good | >20 wt % |  |  | C=CC(=O)Oc1cccc(OC(=O)C=C)c1CCc1cc2ccccc2c2c1sc1ccc3ccccc3c12 [Example 14] | 
1.81 | Good | >20 wt % |  |  | C=C(C)C(=O)Oc1cc2ccccc2cc1CCc1cc2ccccc2c2c1sc1ccc3ccccc3c12 [Example 15] | 
